Reference: US10138208B2, “Pyrazole derivatives as inhibitors of STAT3” (Mayo Foundation for Medical Education and Research, priority 2012, dated 2018)
Entries after “also recorded” stand apart in the source; their conditions may differ. Read-outs that look alike come from different tables or passages of the source.

Experiments:
STAT3 [1] = target: T1, STAT3 (Homo sapiens, UniProt P40763); experiment: IL-6 induced STAT3 phosphorylation, Western blot / densitometry, dBT114 cells; format: cell-based; settings: for inhibition of STAT3 phosphorylation: IL-6, 10 μM, Western blot (FIG. 1); for IC50: densitometry of western blots (FIG. 12), read-out: half-maximal inhibitory concentration (IC50) for blocking STAT3 activation; for dose dependence of inhibition of IL-6 induced STAT3 phosphorylation: increasing concentrations (FIG. 2)
T1 construct: To characterize changes in protein levels in whole cell lysates; endogenous in cells; host or cells: dBT114 (human GBM stem cell line)
T1 sequence (P40763 whole entry): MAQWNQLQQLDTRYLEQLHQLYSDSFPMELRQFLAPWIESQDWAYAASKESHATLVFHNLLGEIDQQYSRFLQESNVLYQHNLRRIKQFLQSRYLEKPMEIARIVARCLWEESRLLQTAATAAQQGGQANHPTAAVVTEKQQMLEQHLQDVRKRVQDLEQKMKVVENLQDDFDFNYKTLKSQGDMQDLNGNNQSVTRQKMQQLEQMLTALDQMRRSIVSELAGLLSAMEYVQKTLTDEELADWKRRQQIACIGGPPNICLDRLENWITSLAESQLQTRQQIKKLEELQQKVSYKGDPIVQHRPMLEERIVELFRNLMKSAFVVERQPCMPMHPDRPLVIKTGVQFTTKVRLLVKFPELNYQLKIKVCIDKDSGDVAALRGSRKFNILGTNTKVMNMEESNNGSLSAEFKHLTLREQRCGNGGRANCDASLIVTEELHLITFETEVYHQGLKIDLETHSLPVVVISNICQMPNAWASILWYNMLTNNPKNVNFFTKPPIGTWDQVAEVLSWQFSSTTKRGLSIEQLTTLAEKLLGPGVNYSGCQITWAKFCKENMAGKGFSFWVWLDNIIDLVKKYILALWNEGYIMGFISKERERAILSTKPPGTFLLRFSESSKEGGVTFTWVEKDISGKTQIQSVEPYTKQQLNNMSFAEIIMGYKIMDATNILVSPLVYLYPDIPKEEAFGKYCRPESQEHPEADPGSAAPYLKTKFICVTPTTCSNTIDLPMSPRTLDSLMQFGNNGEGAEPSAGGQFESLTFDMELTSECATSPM
Experimental: (§1) Compounds described herein can be tested for blocking the activation of phospho-STAT3 in vitro. […] The compounds were tested for inhibiting IL-6 induced phosphorylation of STAT3 in a human Glioblastoma GBM stem cell line (dBT114) and in the murine GBM cell line, GL261. IL-6 potently activates STAT3 phosphorylation in dBT114 cells but not as much in GL261 cells (FIG. 1), showing that GL261 cells have constitutively activated STAT3. […] A dose dependent decrease of IL-6 induced STAT3 phosphorylation in dBT114 cells using increasing concentrations of our compounds was observed, while no effect was seen on the levels of activated MAP kinase (FIG. 2).
Western Blot Analysis: Prior to analysis, cells were washed twice in cold phosphate buffered saline (PBS) and flash frozen in 200 μL of lysis buffer (50 mm/L NaCl, 50 mmol/L NaF, 50 mmol/L sodium pyrophosphate, 5 mmol/L EDTA, 5 mmol/L EGTA, 2 mmol/L Na3VO4, 1% Triton X-100, 0.5 mmol/L PMSF, […], 10 mmol/L HEPES, pH 7.4) in a ethanol/dry ice bath followed by scraping and a 5 second sonication to achieve a homogeneous solution. Sample protein concentrations were determined using the Bradford protein assay kit (Bio-Rad, Hercules, Calif.). To characterize changes in protein levels in whole cell lysates, 10 μg of total protein was size fractioned by 12% SDS-PAGE, transferred to nitrocellulose and stained with Ponceau-S stain to ensure equal protein loading. For Western blot analysis, membranes were incubated for 1 hour in blocking solution containing 1% dry milk in PBS-T, followed by an overnight incubation with either anti-Stat3 (Santa Cruz Biotechnology, Santa Cruz, Calif.,) or anti-Phospho-Stat3 (Santa Cruz). Nitrocellulose membranes were then incubated for 1 hour with horseradish peroxidase conjugated anti-IgG antibodies and visualized using Super Signal West Pico enhanced chemiluminescence detection (Thermo Scientific, Waltham, Mass.).
Western Densitometry—Determination of Half-Maximal Inhibitory Concentration for Activating STAT3: Dose Response Curves Half-maximal inhibitory concentrations for activating STAT3 (IC50 values) were calculated in BT114 cells from western blot data. The original western blot films were analyzed by densitometric analysis using the software program NIH Image (available at rsb.info.nih.gov/nih-image/). Standard dose-response curves were then created using the software program Prism 5.

dBT114 cells = experiment: Annexin V/propidium iodide apoptosis assay, dBT114; format: cell-based, human; settings: for cell death through apoptosis (Annexin V/PI flow cytometry): dBT114 (BT114) cells, dose dependent, 24 hours
Experimental: (§2) The compounds were tested for their effect on tumor cell viability by initiating apoptosis through Annexin V-FITC cell staining analysis. […] Cell death was most pronounced in DAOY cells, followed by BT114 and then HCT cells (FIG. 8). […] The difference in cell death between cell lines may reflect differences in STAT3 signaling between tumor cell types.
(§3) Apoptosis Assay: Analysis of cell death through an apoptosis pathway was determined using an Annexin V apoptosis detection kit (Calbiochem, Rockland, Mass.). dBT114, DAOY and HCT116 cells were plated in 6-well tissue culture plates at a density of 500 cells per well and allowed to reach 60% confluence prior to addition of test compounds for 24 hours. Floating and adherent cells were harvested and stained with FITC-labeled Annexin V and propidium iodide for 15 minutes at room temperature in the dark. The cells were then washed with cold binding buffer and immediately analyzed by flow cytometry for cells staining positive for both Annexin V and propidium iodide.

Bcl-2 = experiment: Downstream target of STAT3 transcription: Bcl-2 protein level in dBT114 cells; format: cell-based, human; settings: various concentrations, 24 hours (FIG. 3, FIG. 10B)
Experimental: (§4) STAT3 is a transcription factor that leads to the activation of several pro-proliferation proteins including Cyclin D1 and numerous anti-apoptotic proteins such as Bcl-2. To analyze the effects on the downstream targets of STAT3 transcription, Cyclin D1 and Bcl-2 protein levels were monitored after exposure to the compounds described. dBT114 cells were treated with various concentrations of C3, C10 or DMSO for 24 hours.
(§5) Western Blot Analysis: Prior to analysis, cells were washed twice in cold phosphate buffered saline (PBS) and flash frozen in 200 μL of lysis buffer (50 mm/L NaCl, 50 mmol/L NaF, 50 mmol/L sodium pyrophosphate, 5 mmol/L EDTA, 5 mmol/L EGTA, 2 mmol/L Na3VO4, 1% Triton X-100, 0.5 mmol/L PMSF, […], 10 mmol/L HEPES, pH 7.4) in a ethanol/dry ice bath followed by scraping and a 5 second sonication to achieve a homogeneous solution. Sample protein concentrations were determined using the Bradford protein assay kit (Bio-Rad, Hercules, Calif.). To characterize changes in protein levels in whole cell lysates, 10 μg of total protein was size fractioned by 12% SDS-PAGE, transferred to nitrocellulose and stained with Ponceau-S stain to ensure equal protein loading. […]

[2] = tested on: Normal Human Astrocytes (NHA)
Experimental: (§9) MTT Cell Proliferation Assay: Normal Human Astrocytes (Lonza) and human BT114 cells were plated at a density of 5000 cells per well in a 96-well tissue culture plate and incubated at 37° C. in the presence of 5% CO2 for 24 hours. Cell proliferation was determined using the CellTiter 96 Cell Proliferation Assay (Promega). After 24 hours cells were refed with normal media and MTT dye solution was added according to manufacturer's protocol. After 4 hours the reaction was stopped and absorbance was measured at 570 nm using a 96 well plate reader. […] (n=4).

[3] = tested on: glioblastoma (dBT114) cells; experiment: IncuCyte cell proliferation assay (confluence), dBT114; format: cell-based, human; settings: for dose-dependent inhibition of tumor cell proliferation: dBT114 cells (FIG. 4B); for effect on tumor cell growth kinetics (confluence): 50 μM (FIG. 4A)
Experimental: (§6) Pyrazole-based inhibitors were tested for efficacy in stopping tumor cell growth by performing cell proliferation assays in glioblastoma (dBT114), medulloblastoma (DAOY) and human colorectal carcinoma (HCT116) cells lines. Tumor cells were plated in 96-well plates and varying concentrations of inhibitors or DMSO were added initially or after several log-growths of tumor cells. Cell proliferation was determined by measuring cell confluency using an automated system. […] Similar effects were found on tumor cell proliferation in DAOY and HCT116 tumor cell lines (FIG. 5, again only showing C6 data). The effects of C6 and C3 on tumor cell proliferation were compared to other previously characterized inhibitors, specifically, WP1066 (a Jak2 inhibitor) and LLL-12 (a direct STAT3 inhibitor).
(§7) IncuCyte Cell Proliferation Assay: Cell proliferation assays were performed on dBT114, DAOY and HCT116 cells using an IncuCyte 2011A microplate imager (Essen BioScience, Ann Arbor, Mich.). Cells were plated at a density of 3000 cells per well in a 96 well plate and allowed to reach exponential growth phase prior to the addition of test compounds. Cell confluence was measured optically every three hours for up to 90 hours.

STAT3 [4] = target: T2, STAT3 (Mus musculus, UniProt P42227); experiment: STAT3 phosphorylation, Western blot, GL261 cells; format: cell-based, murine; settings: GL261 cells (constitutively activated STAT3), 10 μM, Western blot (FIG. 1)
T2 construct: endogenous in cells; host or cells: GL261 (murine GBM cell line)
T2 sequence (P42227 whole entry): as the sequence (P40763 whole entry) above, with E760D counted along it
Experimental: as §1
(§8) Western Blot Analysis: Prior to analysis, cells were washed twice in cold phosphate buffered saline (PBS) and flash frozen in 200 μL of lysis buffer (50 mm/L NaCl, 50 mmol/L NaF, 50 mmol/L sodium pyrophosphate, 5 mmol/L EDTA, 5 mmol/L EGTA, 2 mmol/L Na3VO4, 1% Triton X-100, 0.5 mmol/L PMSF, […], 10 mmol/L HEPES, pH 7.4) in a ethanol/dry ice bath followed by scraping and a 5 second sonication to achieve a homogeneous solution. Sample protein concentrations were determined using the Bradford protein assay kit (Bio-Rad, Hercules, Calif.). […]

MAP kinase = experiment: Activated MAP kinase levels, Western blot, dBT114 cells; format: cell-based, human; settings: increasing concentrations (FIG. 2)
Experimental: as §1, §8

PARP = PARP cleavage in dBT114 cells; format: cell-based, human; settings: various concentrations, 24 hours (FIG. 3, FIG. 10B)
DAOY cells [5] = experiment: Annexin V/propidium iodide apoptosis assay, DAOY; format: cell-based; settings: dose dependent, 24 hours
Experimental: as §2, §3

[6] = tested on: Normal Human Astrocytes (NHA); experiment: MTT cell proliferation assay, normal human astrocytes; settings: 24 hour exposure, increasing concentrations, n=4 (FIG. 13)
Experimental: as §9

HCT116 cells = experiment: Annexin V/propidium iodide apoptosis assay, HCT116; format: cell-based, human; settings: HCT (HCT116) cells, dose dependent, 24 hours
Experimental: as §2, §3

[7] = tested on: human colorectal carcinoma (HCT116) cells; experiment: IncuCyte cell proliferation assay (confluence), HCT116; format: cell-based; settings: human colorectal carcinoma cell line HCT116 (FIG. 5B)
Experimental: as §6, §7

[8] = tested on: medulloblastoma (DAOY) cells; experiment: IncuCyte cell proliferation assay (confluence), DAOY; format: cell-based; settings: DAOY cells (FIG. 5A)
Experimental: as §6, §7

DAOY cells [9] = experiment: Uptake in living cells by confocal microscopy; format: cell-based; settings: live DAOY cells, 50 μM, 30 minutes, confocal microscopy (FIG. 9)
Experimental: Further, live DAOY cells were treated with 50 μM C9 for 30 minutes and then evaluated its uptake with confocal microscopy.

Cyclin D1 = experiment: Downstream target of STAT3 transcription: Cyclin D1 protein level in dBT114 cells; format: cell-based, human; settings: various concentrations, 24 hours (FIG. 3)
Experimental: as §4, §5

CNC(=O)COCC(=O)Nc1ccc(Cc2cc(-c3ccc(Br)cc3)n(-c3ccc(S(N)(=O)=O)cc3)n2)cc1 [C3, 3-[{2-[(Methylaminocarbonyl)-methoxy]-acetyl}-(4-aminobenzyl)]-5-(4-bromophenyl)-1-(4-aminosulfonylphenyl)-1H-pyrazole]
inhibition of STAT3 phosphorylation (STAT3 [1]): potently inhibited; also recorded: blocked | IC50 (STAT3 [1]): 670 nM | dose dependence of inhibition of IL-6 induced STAT3 phosphorylation (STAT3 [1]): dose-dependent inhibition | cell death through apoptosis (Annexin V/PI flow cytometry) (dBT114 cells): dose-dependent apoptosis | Bcl-2 protein level (Bcl-2): decreased Bcl-2 in a dose dependent fashion; also recorded: dose-dependent reduction | metabolic activity of normal human astrocytes [2]: no clear pattern of increased or decreased metabolic activity | dose-dependent inhibition of tumor cell proliferation [3]: dose-dependent inhibition | effect on tumor cell growth kinetics (confluence) ([3]; dBT114 cells): profound effect | inhibition of STAT3 phosphorylation (STAT3 [4]): potently inhibited; also recorded: blocked | effect on levels of activated MAP kinase (MAP kinase): no effect | cleavage of PARP (induction of apoptosis) (PARP): cleavage of PARP; also recorded: increase

CC(=O)Nc1ccc(Cc2cc(-c3ccc(Br)cc3)n(-c3ccc(S(N)(=O)=O)cc3)n2)cc1 [C4, 3-(4-Acetamidebenzyl)-5-(4-bromophenyl)-1-(4-aminosulfonylphenyl)-1H-pyrazole]
IC50 (STAT3 [1]): > 50000 nM | cell death through apoptosis (Annexin V/PI flow cytometry) (dBT114 cells): cell death through apoptosis; also recorded: dose-dependent apoptosis | dose-dependent inhibition of tumor cell proliferation [3]: dose-dependent inhibition | cell death through apoptosis (Annexin V/PI flow cytometry) (DAOY cells [5]): cell death through apoptosis | metabolic activity of normal human astrocytes [6]: no clear pattern of increased or decreased metabolic activity | cell death through apoptosis (Annexin V/PI flow cytometry) (HCT116 cells): cell death through apoptosis

CC(C)CCc1cc(-c2ccc(Br)cc2)n(-c2ccc(S(N)(=O)=O)cc2)n1 [C6, 5-(4-Bromophenyl)-3-(isopentyl)-1-(4-aminosulfonylphenyl)-1H-pyrazole]
IC50 (STAT3 [1]): 13400 nM | relative potency in causing cell death (dBT114 cells; all cell lines tested (BT114, DAOY, HCT)): more potent than C4 | cell death through apoptosis (Annexin V/PI flow cytometry) (dBT114 cells): cell death through apoptosis; also recorded: dose-dependent apoptosis | dose-dependent inhibition of tumor cell proliferation [7]: dose dependent inhibition | dose-dependent inhibition of tumor cell proliferation [3]: dose-dependent inhibition; also recorded: dose dependent inhibition | effect on tumor cell growth kinetics (confluence) ([3]; dBT114 cells): profound effect | cellular proliferation, combination with temozolomide (TMZ) ([3]; dBT114 cells, C6 fixed 25 μM with increasing concentrations of TMZ (FIG. 7)): dose-dependent decrease | cell death through apoptosis (Annexin V/PI flow cytometry) (DAOY cells [5]): cell death through apoptosis | dose-dependent inhibition of tumor cell proliferation [8]: dose dependent inhibition | metabolic activity of normal human astrocytes [6]: no clear pattern of increased or decreased metabolic activity | cell death through apoptosis (Annexin V/PI flow cytometry) (HCT116 cells): cell death through apoptosis

CC(C)CCc1cc(-c2ccccc2)nn1-c1ccc(S(N)(=O)=O)cc1 [C9, 3-(Phenyl)-5-(isopentyl)-1-(4-aminosulfonylphenyl)-1H-pyrazole]
uptake and fluorescence in living cells (DAOY cells [9]): strong uptake and fluorescence

NS(=O)(=O)c1ccc(-n2nc(Cc3ccc(NC(=O)COCC(=O)NCCCCCCCNC(=O)COCC(=O)Nc4ccc(Cc5cc(-c6ccc(Br)cc6)n(-c6ccc(S(N)(=O)=O)cc6)n5)cc4)cc3)cc2-c2ccc(Br)cc2)cc1 [C10, 3-[{2-[(7-{2-[((4-((5-(4-Bromophenyl)-1-(4-sulfamoylphenyl)-1H-pyrazol-3-yl)methyl)phenyl)aminocarbonyl)-methoxy]-acetylamino}-heptylaminocarbonyl)-methoxy]-acetyl}-(4-aminobenzyl)]-5-(4-bromophenyl)-1-(4-aminosulfonylphenyl)-1H-pyrazole]
inhibition of STAT3 phosphorylation (STAT3 [1]): potently inhibited; also recorded: blocked | IC50 (STAT3 [1]): 207 nM | dose dependence of inhibition of IL-6 induced STAT3 phosphorylation (STAT3 [1]): dose-dependent inhibition | cell death through apoptosis (Annexin V/PI flow cytometry) (dBT114 cells): dose-dependent apoptosis | Bcl-2 protein level (Bcl-2): dose-dependent reduction | Cyclin D1 protein level (Cyclin D1): decreased Cyclin D1 levels in a dose dependent fashion | metabolic activity of normal human astrocytes [2]: no clear pattern of increased or decreased metabolic activity | inhibition of STAT3 phosphorylation (STAT3 [4]): potently inhibited; also recorded: blocked | effect on levels of activated MAP kinase (MAP kinase): no effect | cleavage of PARP (induction of apoptosis) (PARP): increase
